Data published in article PMC10136189, “A Tale of 12 Tails: Katanin Severing Activity Affected by Carboxy-Terminal Tail Sequences” (Biomolecules, 2023).

Columns and labels:
[1] = target: T1, human GFP-katanin p60 (Homo sapiens, UniProt O75449); assay: in vitro microtubule severing assay (loss of microtubule polymer); type: biochemical; conditions: for inhibition of katanin severing of microtubules (loss of polymer) / relative potency as inhibitor of katanin binding and severing (comparison in words): inhibitor 0-2 μM; for inhibition of katanin severing of microtubules (loss of polymer): taxol-stabilized rhodamine microtubules, Katanin Activity Buffer pH 7.7, 2 mM ATP, 5 min movies; for relative potency as inhibitor of katanin binding and severing (comparison in words): compared with other CTTs or whole tubulin
T1 construct: made in house; host or cells: Escherichia coli BL21(DE3)
Description: (§1) In this work, we use the in vitro microtubule severing assay to quantitatively characterize the microtubule binding and severing ability of human GFP-katanin p60 in the presence of different CTT sequences. First, we ensure that our human GFP-katanin p60 can robustly and reproducibly sever microtubules and completely remove all polymer within 3–5 min (Figure 1A). As each katanin prep has slightly different activity and the activity can fluctuate (Supplemental Figure S1), we perform control experiments each day to determine the optimal katanin concentration needed and to serve as a control without added inhibitors (Figure 1A). For simplicity we use “katanin” to refer to human GFP-katanin p60 for the remainder of this manuscript.
(§2) Flow chambers with 10 μL channels were made by adhering double-stick tape (3M, St. Paul, MN, USA) to a microscope slide and attaching a silanized coverslip cross-wise. Silanized coverslips were UVO sterilized, cleaned with rinses of acetone, ethanol, 0.1 M KOH, and ddH20 before coating with PlusOne Repel-Silane 2% dimethyldichlorosilane (Cytiva, Marlborough, MA, USA). Samples were made in the chambers by flowing through the chamber using a pipette and filter paper to wick from the other side. For severing assays, we first flowed 5% MAB1864 tubulin YL ½ antibody (Merck-Millipore, Billerica, MA, USA) in PEM-100 for three minutes to provide a binding site for microtubules. Second, we flowed 5% (w/v) Pluronic F127 to act as a polymer brush to block the surface, allowing three minutes for incubation. Next, we flowed 10% rhodamine-labeled microtubules diluted 1:100 (final tubulin concentration 454 nM) and allowed them to adhere for three minutes. During the incubation, an aliquot of katanin was rapidly defrosted from −80 °C and diluted to assay concentration. The chamber was then washed with Katanin Activity Buffer (20 mM HEPES pH 7.7, 10% glycerol, 2 mM MgCl2, 2 mM ATP, 0.025 mg/mL BSA, 0.05% F127, 10 mM dithiothreitol (DTT), 15 mg/mL glucose, 0.15 mg/mL catalase, […]) to remove excess unadhered microtubules. The chamber was then situated on the microscope to find a good field for the assay before flowing Katanin Activity Buffer with GFP-katanin and CTT tails at their respective concentrations.
(§3) Imaging was performed using epifluorescence and total internal reflection (TIRF) with a home-built laser illumination system around a Nikon Ti-E microscope (Nikon USA, Melville, NY, USA). Epifluorescence was used to image rhodamine microtubules in the red channel, and TIRF was used to image GFP-katanin illuminating with a 488 nm laser. Images were collected with a 60x, oil-coupled TIRF objective with a numerical aperture of 1.49 (Nikon USA, Melville, NY, USA). The two-color imaging was performed using shuttering the red channel (400–800 ms exposure) and green channel (70–200 ms exposure) sequentially. The 5 min movies recorded with 3 s intervals using Nikon Elements software (Nikon USA, Melville, NY, USA) driving an Ixon EMCCD camera (Andor, Belfast, Northern Ireland) with a final pixel size of 160 nm. Movie data were saved as a 16-bit time series as nd2 files with metadata. Movies were started recording before the GFP-katanin mixture was flowed while imaging. After the 5 min, a new field of view was imaged to ensure that the loss of microtubule polymer was universal in the chamber and not due to imaging conditions.
(§4) Each of the 64 treatments were run two to three times for replication and for obtaining 15–20 MTs for analysis. Four control chambers were run each day to ensure chamber activity was caused by the respective treatment conditions. […] Next, the concentration needed to sever microtubules within 2–3 min is determined in the presence of ATP. Once the optimal katanin concentration is determined, the assay is repeated in the absence of ATP to again test the imaging conditions in the presence of a GFP-katanin binding to microtubules. […]

[2] = target: T1, human GFP-katanin p60; assay: GFP-katanin binding to microtubules (TIRF intensity) in the severing assay; conditions: inhibitor 0-2 μM; GFP intensity normalized to same day control without inhibitor; pH 7.7, 2 mM ATP
Description: as §1, §2
as §3, with “Movie data were saved as a 16-bit time series as nd2 files with metadata. Movies were started recording before the GFP-katanin mixture was flowed while imaging. After the 5 min, a new field of view was imaged to ensure that the loss of microtubule polymer was universal in the chamber and not due to imaging conditions.” left out
as §4, with “analysis.” for “analysis. Four control chambers were run each day to ensure chamber activity was caused by the respective treatment conditions.”

T1 sequence (O75449 whole entry): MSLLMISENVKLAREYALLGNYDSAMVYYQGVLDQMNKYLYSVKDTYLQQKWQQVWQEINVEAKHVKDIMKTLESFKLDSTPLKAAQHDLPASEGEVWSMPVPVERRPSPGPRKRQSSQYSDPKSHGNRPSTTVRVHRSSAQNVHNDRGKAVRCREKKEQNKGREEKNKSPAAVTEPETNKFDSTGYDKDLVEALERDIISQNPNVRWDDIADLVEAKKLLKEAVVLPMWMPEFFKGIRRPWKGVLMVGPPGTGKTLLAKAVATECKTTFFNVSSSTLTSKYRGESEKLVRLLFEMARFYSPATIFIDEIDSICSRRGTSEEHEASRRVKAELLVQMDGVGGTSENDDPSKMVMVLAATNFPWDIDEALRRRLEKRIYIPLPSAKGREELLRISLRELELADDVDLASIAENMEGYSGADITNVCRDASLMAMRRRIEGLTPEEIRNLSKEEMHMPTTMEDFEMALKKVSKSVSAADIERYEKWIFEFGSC

inhibition of katanin severing of microtubules (loss of polymer) [1]	inhibition of GFP-katanin binding to microtubules [2]	predicted ability to inhibit katanin severing ([1]; prediction from hydrophobicity and C-terminal phenylalanine, not tested)	Sequence	relative potency as inhibitor of katanin binding and severing (comparison in words) ([1]; listed as beta5 CTT)	relative potency as inhibitor of katanin binding and severing (comparison in words) ([1]; listed as beta5 tubulin CTT)
can inhibit	can inhibit	–	A T A DDDDDDDDDD [D10]	–	–
more beta2a CTT is needed to inhibit	more beta2a CTT is needed to inhibit	–	A T A DE Q G E F EEEE G EDE A [Beta2 (TUBB2A)]	–	–
severing is inhibited	–	–	A T A EEEED F G EE A EEE A [Beta5 (TUNN/TUBB5)]	most potent inhibitor of the CTTs we tested	better at inhibiting katanin than whole tubulin
far less potent as a katanin inhibitor	does not affect katanin binding	–	A T A EEEED F G EE A EEE Y [Beta5-A+Y, artificial beta5 CTT with the last amino acid (A) replaced with a tyrosine]	–	–
cannot inhibit katanin severing	little inhibition of GFP-katanin binding	–	A T A EEEED M Y EDDDEE S E A Q G P K [Beta3 (TUBB3)]	–	–
can inhibit	can inhibit	–	A T A EEEEEEEEEE [E10]	–	–
–	–	unable to inhibit katanin severing	DSFEEENEGEEF [alpha8, human alpha8 tubulin tail, only alpha tail with a C-terminal F; hydrophobicity calculated, not tested]	–	–
